This note sets out measurements from patent US4192888A, “Pharmaceutical compositions and method of inhibiting phenylethanolamine N-methyltransferase” (SmithKline Corporation, priority 1978, dated 1980).

As a reminder, the inhibition is the share of the control response that was lost under treatment. A high value points to a response far below the control.

Assay [1] deals with T1, phenylethanolamine N-methyltransferase (Oryctolagus cuniculus, UniProt G1TT82).
T1 construct: from tissue
T1 sequence (G1TT82 1-286): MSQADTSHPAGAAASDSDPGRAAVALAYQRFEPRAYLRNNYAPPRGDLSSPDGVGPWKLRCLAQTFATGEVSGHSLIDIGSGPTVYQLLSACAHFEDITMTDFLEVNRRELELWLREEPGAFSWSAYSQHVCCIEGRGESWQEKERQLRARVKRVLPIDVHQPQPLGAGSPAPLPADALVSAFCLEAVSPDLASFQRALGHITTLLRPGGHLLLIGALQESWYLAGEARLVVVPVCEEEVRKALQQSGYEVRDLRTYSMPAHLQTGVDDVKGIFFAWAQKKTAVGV
Description: In vitro inhibition of phenylethanolamine N-methyltransferase (Pendleton and Snow procedure). The class given is biochemical. The following applies: for In Vitro Inhibition % at 10^-4: compound concentration 10^-4; for inhibition at 1 µM: compound concentration 10^-6M. The text has this: For example, following are in vitro results obtained from testing several compounds present in the pharmaceutical compositions and methods of this invention.

For another assay, the system named is PNMT. Description: In vivo conversion of 3H-norepinephrine into 3H-epinephrine in rat adrenals after oral dosing (PNMT inhibition). Conditions: rats, 50 mg./kg. three times over 24 hours, tracer 3H-norepinephrine i.v. (tail vein) one hour after last dose, adrenals assayed 45 min later, active if p<0.05. From the text: One hour after the last dose the rats are given a tracer dose of ^3 H-norepinephrine into a tail vein. Forty-five minutes later they are sacrificed by decapitation and the adrenals assayed for ^3 H-epinephrine and ^3 H-norepinephrine.

Take `NC1Cc2ccc([N+](=O)[O-])cc2C1` (stereo not shown) [compound 85391]: in assay [1], the “In Vitro Inhibition % at 10^-4” value is reported as 96% and the inhibition at 1 µM turned out to be 23%.

Regarding `NC1Cc2ccc(Cl)cc2C1` (stereo not shown) [compound 85506], in assay [1], the “In Vitro Inhibition % at 10^-4” value is 96% and the inhibition at 1 µM came to 37%.

Take `NC1Cc2ccc(S(N)(=O)=O)cc2C1` (stereo not shown) [5-sulfamoyl-2-aminoindane, 5-sulfamyl-2-indanamine]: the “inhibition of the conversion of radioactive norepinephrine into epinephrine” value in the assay with PNMT is “significantly inhibited this conversion (p<0.01)”.

Take `NC1Cc2ccc(Br)cc2C1` (stereo not shown) [compound 85347]: in assay [1], the “In Vitro Inhibition % at 10^-4” value stood at 96% and testing at 1 µM gave an inhibition of 33%.
